Consider one compound from US20050033056A1, “Hydroxylated indole derivatives and uses thereof” (priority 2001, published 2005).

One data set has as its target CYP2C19 (Homo sapiens, UniProt P33261). Nature of the data set: CYP inhibition in HLM: S-mephenytoin 4'-hydroxylation. The class given is in vitro ADME. More on the design: tissue Gentest Corp. (Woburn, Mass.); host or cells: pooled human liver microsomes. Particulars: in the presence of Compound 1, concentration-dependent. The protocol:
The incubations were carried out in test tubes (12.0×75 mm). The incubation mixtures (250 μL) contained 0.5 mg of HLM protein, 50 (CYP1A2 and CYP2E1) or 25 (CYP2C9, CYP2C19, CYP2D6 and CYP3A4) pmol of recombinant human CYPs, Compound 1 (10 or 50 μM), probe substrate (R—, S-warfarin, chlorzoxazone, S-mephenyloin, or bufuralol) at different concentrations, and 0.5 mg of NADPH in 50 mM Tris buffer containing 15 mM MgCl2 (pH 7.4). Compound 1 was added to the reaction mixture 5 minutes prior to the addition of the probe substrate. […]
The quantification was based on the calibration curves, and the quality control (QC) samples were applied to ensure the quality of the experiments. […]
4. […] MRM was applied for the quantification. […]
Data were acquired and analyzed by ChemStation (Version 6.03, Hewlett Packard, Waldbronn, Germany) for 6-, 7-, and 10-hydroxywarfarin and 6-hydroxychlorzoxazone, and MacQuan (Version 1.6, PE Biosystem, Foster City, Calif.) for 1′-hydroxybufuralol and 4′-hydroxymephenytoin. Quantification was based on peak area ratios of metabolites over the respective IS against the respective concentration of the metabolites. […] The metabolic rates were determined using Excel (Microsoft Office 97, Microsoft Corporation, Redmond, Wash.) or SigmaPlot (Version 6.00, SPSS Inc. Chicago, Ill.). […]

For data set [1], the target named is T1, cDNA-expressed recombinant CYP2C19 (Homo sapiens, UniProt P33261).
T1 construct: purchased Gentest Corp. (Woburn, Mass.); host or cells: insect cells (microsomal preparation)
T1 sequence (P33261 whole entry): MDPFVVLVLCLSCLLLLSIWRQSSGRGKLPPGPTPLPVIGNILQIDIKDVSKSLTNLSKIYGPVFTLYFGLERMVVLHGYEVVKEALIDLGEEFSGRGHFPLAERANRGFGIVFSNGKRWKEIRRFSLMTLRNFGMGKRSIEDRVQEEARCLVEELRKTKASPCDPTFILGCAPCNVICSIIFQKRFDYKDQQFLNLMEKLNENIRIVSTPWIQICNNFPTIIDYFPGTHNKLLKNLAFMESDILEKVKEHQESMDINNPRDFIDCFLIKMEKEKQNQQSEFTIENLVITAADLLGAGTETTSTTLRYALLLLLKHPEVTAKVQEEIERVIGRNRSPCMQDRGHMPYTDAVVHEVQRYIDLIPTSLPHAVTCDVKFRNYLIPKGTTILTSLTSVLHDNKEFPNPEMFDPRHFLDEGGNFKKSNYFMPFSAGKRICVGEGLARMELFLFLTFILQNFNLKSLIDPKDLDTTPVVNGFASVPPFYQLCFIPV
Description: Apparent Ki with recombinant CYP2C19 (S-mephenyloin 4'-hydroxylation; Dixon plots, SNLR). Particulars: for pKi: recombinant CYP2C19. It counts as in vitro ADME. The protocol: If inhibition was detected, the inhibitory potency was determined using recombinant CYPs. Compound 1 appeared to inhibit the activities of CYP2D6 and CYP2C19. Therefore, three concentrations of S-mephenyloin (30, 80, and 200 μM) and bufuralol (5, 10, and 40 μM), and a range of concentrations (0-200 μM) of Compound 1 were used for the construction of Dixon plots and simultaneously nonlinear regression (SNLR) analyses were performed. The incubation conditions and sample preparations were the same as previously described.
4. CYP2C19-mediated S-mephenyloin 4′-hydroxylation (Goldstein et al., Biochemistry 33:1743-1752, 1994): The LC/MS/MS system, including the separation column, described for the bufuralol hydroxylation was used. The isocratic mobile phase, 100 mM formic acid-acetonitrile/75:25, was run at 0.25 ml/minutes. The operation of the LC/MS/MS was controlled by MacChrom (Version 1.6). The MS/MS was operated at positive ESI with a 5.5 kV ionization potential and 100° C. ion source temperature. MRM was applied for the quantification. The MRM transition ions were m/z 235→150 for 4′-hydroxymephenytoin, and m/z […] for the IS R-propranolol.
Data were acquired and analyzed by ChemStation (Version 6.03, Hewlett Packard, Waldbronn, Germany) for 6-, 7-, and 10-hydroxywarfarin and 6-hydroxychlorzoxazone, and MacQuan (Version 1.6, PE Biosystem, Foster City, Calif.) for 1′-hydroxybufuralol and 4′-hydroxymephenytoin. Quantification was based on peak area ratios of metabolites over the respective IS against the respective concentration of the metabolites. The standard curves were generated by linear regression with (6-, 7-, and 10-hydroxywarfarin, 1′-hydroxybufuralol, and 4′-hydroxymephenytoin) or without (6-hydroxychlorzoxazone) a weighting factor (1/x^2). The metabolic rates were determined using Excel (Microsoft Office 97, Microsoft Corporation, Redmond, Wash.) or SigmaPlot (Version 6.00, SPSS Inc. Chicago, Ill.). […]

A further data set deals with 5-HT2 receptor. As to conditions: background statement, see WO 98/43956 and EP 0 976 732 A1; cited from earlier work.

Structures are written as SMILES. pKi: −log10 of the molar value. Entries after “also recorded” stand apart in the source; their conditions may differ. Read-outs that look alike come from different tables or passages of the source.

Sequence of CYP2C19 (P33261 whole entry): as above

Regarding `CNC(=O)Cc1ccc2ccn(C3CCN(CCc4ccccc4F)CC3)c2c1` [Compound 1, N-methyl-[1-[1-(2-fluorophenethyl)piperidine-4-yl]-1H-indol-6-yl] acetamide], the “effect on CYP2C19-mediated S-mephenyloin 4'-hydroxylation activity (in words)” value at CYP2C19 is “significantly reduced”. In data set [1] (Dixon plots and SNLR analyses), the “type of inhibition of CYP2C19” value is recorded as “competitive inhibitor; also recorded: primarily, if not fully, competitive”. For the same compound, the pKi (in general, −log10 of the Ki, conventionally taken in molar units) was 4.35 to 4.60 in data set [1] (Dixon plots, S-mephenyloin 30, 80, 200 μM, read-out: apparent Ki, CYP2C19, estimated by Dixon plots) and 4.32 in data set [1] (SNLR, competitive inhibition model, read-out: apparent Ki, CYP2C19 inhibition, determined by SNLR). Moreover, the “IC50, binding to 5-HT2 receptor” value at 5-HT2 receptor was “low nanomolar”.
